Assay results from US8946149B2, “Use of exendin and analogs thereof to delay or prevent cardiac remodeling” (Amylin Pharmaceuticals, LLC, priority 2005, dated 2015).

Legend:
[1] = system: MI-induced rat model; test: Treadmill test, plasma lactate and insulin sensitivity in rats after myocardial infarction; assay type: in vivo, Sprague-Dawley rats
[2] = system: MI-induced rat model; test: Whole body composition, heart, lung weight and infarct size in rats with CHF after LAD ligation; assay type: in vivo, Sprague-Dawley rats; settings: for B.W / Fat mass / Fluid mass / Infarct size / LV weight / LV weight/B.W. / Lean mass / Lung weight / Lung weight/B.W. / RV weight / RV weight/B.W.: 13th week of MI, mean ± SEM
Experimental: (§1) Male Sprague-Dawley® rats (250-300 g) are anesthetized by using 5% isoflurane and a left thoracotomy was performed. The left main anterior descending artery (LAD) was ligated to induce myocardial infarction. In addition, sham animals (n=10) were subjected to the same surgical procedure without ligation of the LAD.
(§2) After two weeks, rats were treated with 2.5 pmol/kg/min GLP-1 (n=11) (GLPL), 25 pmol/kg/min GLP-1 (n=12) (GLPH), 1.67 pmol/kg/min an exendin agonist, AC3174, (n=12) (AC3174L), 5 pmol/kg/min exendin agonist (n=7) (AC3174H), or vehicle (n=14) via subcutaneous infusion for 11 weeks. Echocardiography was performed at the 3rd, 5th, 9th, and 13th week of myocardial infarction. Left ventricular (LV) end systolic dimension (ESD) and diastolic dimension (EDD), LV systolic volume and diastolic volume, left atrial volume were recorded. At the 13th week of MI, the hearts were excised, the LV mass were weighed and LV mass/body weight ratio was determined.

[3] = system: MI-induced rat model; test: Echocardiography and cardiac function (E/A ratio, LVEDP, cardiac output, +dp/dtmax, LV dimensions) in rats after myocardial infarction; assay type: in vivo, Sprague-Dawley rats
Experimental: as §1, §2

[4] = system: cloned GLP-1 receptor; settings: transfected cells; cited from earlier work
[5] = GLPH: GLP-1 25 pmol/kg/min s.c. infusion 11 weeks
[6] = GLPL: GLP-1 2.5 pmol/kg/min s.c. infusion 11 weeks

For GLP-1 (7-36) amide, the “effect on exercise capacity (EC)” value ([1]; at each dose, treadmill test) was “significantly improved”, the “effect on exercise efficiency (EC/VO2)” value ([1]; at each dose, treadmill test) was “significantly improved” and the “effect on baseline plasma lactate” value ([1]; chronic treatment) was “attenuated”. For the same substance, the “effect on exercise capacity/peak lactate ratio” value ([1]; chronic treatment) was “improved”, the “effect on insulin sensitivity” value ([1]; chronic treatment) was “improved” and the “reduction of infarct size compared to the control group” value ([2]; 25 pmol/kg/min s.c. infusion, p<0.05) was 30%. The B.W [2, 5] was 518 ± 12 g, the Fat mass [2, 5] was 51 ± 9 g and the Fluid mass [2, 5] was 331 ± 15 g. The Infarct size [2, 5] was 29 ± 2%, the LV weight [2, 5] was 1.13 ± 0.03 g and the “LV weight/B.W.” value [2, 5] was 0.22 ± 0.01 %. The Lean mass [2, 5] was 35 ± 2 g, the Lung weight [2, 5] was 1.66 ± 0.13 g and the “Lung weight/B.W.” value [2, 5] was 0.32 ± 0.02 %. For the same substance, the RV weight [2, 5] was 0.23 ± 0.01 g, the “RV weight/B.W.” value [2, 5] was 0.04 ± 0.00 % and the B.W [2, 6] was 523 ± 14 g. The Fat mass [2, 6] was 45 ± 6 g, the Fluid mass [2, 6] was 332 ± 11 g and the Infarct size [2, 6] was 30 ± 2%. For the same substance, the LV weight [2, 6] was 1.26 ± 0.05 g, the “LV weight/B.W.” value [2, 6] was 0.24 ± 0.01% and the Lean mass [2, 6] was 37 ± 2 g. The Lung weight [2, 6] was 1.94 ± 0.35 g, the “Lung weight/B.W.” value [2, 6] was 0.37 ± 0.07% and the RV weight [2, 6] was 0.22 ± 0.01 g. For the same substance, the “RV weight/B.W.” value [2, 6] was 0.04 ± 0.00 %, the “effect on LV weight (summary)” value ([2]; chronic treatment) was “attenuated” and the “effect on infarction size (summary)” value ([2]; chronic treatment) was “reduced”. The “effect on the increase of E/A ratio during CHF progression” value ([3]; at each dose, s.c. infusion 11 weeks, 13 weeks after MI, vs control (+116% vs sham)) was “prevented increases”, the “effect on enlargement of LV chamber” value ([3]; chronic treatment) was “slowed” and the “effect on cardiac output” value ([3]; s.c. infusion 11 weeks, control reduced by 19% vs sham) was “normalized”. For the same substance, the “effect on contractility (+dp/dtmax)” value ([3]; s.c. infusion 11 weeks, control reduced by 24% vs sham) was “normalized”, the “effect on remodeling (LV mass, LV end diastolic dimension and systolic dimension increase)” value ([3]; s.c. infusion 11 weeks, progression of CHF) was “significantly reduced” and the “effect on LV end diastolic pressure (LVEDP) elevation” value ([3]; s.c. infusion 11 weeks, vehicle group +97% vs sham) was “eliminated”.
In the case of “exendin[9-39]: truncated exendin peptide, a carboxyamidated molecule, antagonist of GLP-1”, the “action at the cloned GLP-1 receptor (cAMP)” value [4] is given as “antagonist”.
